Experimental data published in US20210015884A1 (priority 2018, published 2021).

Tested on: m^6A levels in viral RNA
Format: cell-based

SMILES | total m^6A levels in viral RNA
Cc1ccc(Cl)c(Nc2ccccc2C(=O)O)c1Cl [MA, meclofenamic acid] | increase of m^6A
Nc1nccc2c1ncn2[C@@H]1O[C@H](CO)[C@@H](O)[C@H]1O [3DZA, 3-Deazaadenosine] | reduction of m^6A
